Experimental data taken from patent US8318711B2, “Use of diacetyl trimer as an aromatic and flavouring substance” (Symrise AG, priority 2004, dated 2012).

Assays:
[1] = Tasting in sweet/salty solution (flavour profile by testers); type: in vivo; conditions: 1 ppm in aqueous 5% sucrose or 0.5% sodium chloride solution, 9 testers; for flavour profile: fatty (oily): scale 1 (action scarcely perceptible) to 9 (action highly perceptible)
Experimental: The 2,5-diacetyl-3a,5,6,6a-tetrahydro-6a-hydroxy-2,3a,5-trimethylfuro[2,3-d]-1,3-dioxole from Example 1 (1 ppm diacetyl trimer in aqueous 5 wt. % sucrose or 0.5% sodium chloride solution) was investigated for its flavouring action by 9 testers. The actions found were evaluated with a scale of from 1 (action scarcely perceptible) to 9 (action highly perceptible).
For comparison, a flavour profile of diacetyl (1 ppm in aq. 5% sucrose or 0.5% sodium chloride solution) was produced under otherwise identical conditions: fatty (oily) (5), cream (5), butter (7), milk (4), condensed milk (4), fruity (2), cheesy (2), sweet (4), vanillin (2), intensity (7), impact (7), fullness (7), adhesive (5), soft (6)

[2] = Stability of diacetyl trimer on heating; type: physicochemical; conditions: heated at 60° C. to 100° C. for 10 minutes

Row | SMILES | flavour profile: fatty (oily) [1] | flavour profile: adhesive ([1]; scale 1 to 9) | flavour profile: butter ([1]; scale 1 to 9) | flavour profile: caramel ([1]; scale 1 to 9) | flavour profile: cream ([1]; scale 1 to 9) | flavour profile: fresh cheese/quark ([1]; scale 1 to 9) | flavour profile: fullness ([1]; scale 1 to 9) | flavour profile: impact ([1]; scale 1 to 9) | flavour profile: intensity ([1]; scale 1 to 9) | flavour profile: soft ([1]; scale 1 to 9) | flavour profile: sweet ([1]; scale 1 to 9) | flavour profile: toffee ([1]; scale 1 to 9) | flavour profile: vanillin ([1]; scale 1 to 9) | decomposition on heating [2] | flavour profile: cheesy ([1]; scale 1 to 9) | flavour profile: condensed milk ([1]; scale 1 to 9) | flavour profile: fruity ([1]; scale 1 to 9) | flavour profile: milk ([1]; scale 1 to 9)
1 | CC(=O)C1(C)CC2(O)OC(C)(C(C)=O)OC2(C)O1 (racemic) [diacetyl trimer, 2,5-diacetyl-3a,5,6,6a-tetrahydro-6a-hydroxy-2,3a,5-trimethylfuro[2,3-d]-1,3-dioxole] | 7 | 8 | 8 | 4 | 6 | 4 | 7 | 7 | 6 | 6 | 6 | 6 | 3 | does not decompose |  |  |  | 
2 | CC(=O)C(C)=O [diacetyl, 2,3-butanedione] | 5 | 5 | 7 |  | 5 |  | 7 | 7 | 7 | 6 | 4 |  | 2 |  | 2 | 4 | 2 | 4
